Source: patent publication US11535613B2 (GUANGDONG RAYNOVENT BIOTECH CO., LTD., priority 2018, dated 2022)

Key:
[1] = tested on: Influenza virus A/Weiss/43 (H1N1) strain; test: Influenza virus cytopathy (CPE) experiment; format: cell-based
[2] = tested on: Influenza A virus H1N1 (H1N1 A/WSN/33 virus); test: Influenza A virus H1N1 mouse infection model (in vivo drug efficacy); settings: H1N1 A/WSN/33 infected BALB/c mice, 10 mg/kg oral twice a day Day 1 to Day 7, first dose 36 hr after infection
[3] = Solid stability test of crystal forms (high temperature, high humidity, light radiation, accelerated conditions; appearance, content, impurities, crystal form by XRPD); format: physicochemical; settings: for change of crystal form (XRPD detection): after the solid stability test conditions; for XPRD: crystal form found
Description: High Performance Liquid Chromatograph (HPLC) The analytic method is as follows: [table] [table] […] The sample was placed under high temperature, high humidity and acceleration conditions. The bottle was sealed with an aluminum foil, and some small holes were pierced on the aluminum foil to ensure that the sample could fully contact with the ambient air. The sample placed under light radiation was placed upright at room temperature and open to the air. The sample was exposed to a light source, and radiated with sufficient energy prior to taking samples for detection. Samples were taken at various time points for analysis, and the detection results were compared with the initial detection results obtained at Day 0. The investigation items include appearance, content and impurities. […] The sample was placed under high temperature, high humidity and acceleration conditions. The bottle was sealed with an aluminum foil, and some small holes were pierced on the aluminum foil to ensure that the sample could fully contact with the ambient air. The sample placed under light radiation was placed upright at room temperature and open to the air. The sample was exposed to a light source, and radiated with sufficient energy prior to taking samples for detection. Samples were taken at various time points for analysis, and the detection results were compared with the initial detection results obtained at Day 0. The investigation items include appearance, content and impurities. […] Samples were taken at various time points, and the test results were compared with the initial test results obtained at Day 0. […] The investigation items include appearance, impurities, and crystal forms.

[4] = Acceleration test (40° C./relative humidity 75%, open), Day 5
[5] = Acceleration test (40° C./relative humidity 75%, open), Day 30
[6] = High humidity (room temperature/relative humidity 92.5%, open), Day 5
[7] = High humidity (room temperature/relative humidity 92.5%, open), Day 30
[8] = High temperature (60° C., open), Day 5
[9] = High temperature (60° C., open), Day 30
[10] = Light radiation (total illumination 1.2 × 10^6 Lux · hr), Day 5
[11] = Light radiation (total illumination 1.2 × 10^6 Lux · hr), Day 12
[12] = Acceleration test (40° C./relative humidity 75%, open), Day 10
[13] = High humidity (room temperature/relative humidity 92.5%, open), Day 10
[14] = High temperature (60° C., open), Day 10
[15] = Light radiation (total illumination 1.2 × 10^6 Lux · hr), Day 10
[16] = high temperature, high humidity and accelerated experiments
[17] = high temperature, high humidity, light radiation and accelerated experiments
[18] = Acceleration test (40° C./relative humidity 75%, open), Day 12
[19] = High humidity (room temperature/relative humidity 92.5%, open), Day 12
[20] = High temperature (60° C., open), Day 12

Compound: O=C(O)[C@H]1C2CCC(CC2)[C@@H]1Nc1nc(-c2n[nH]c3ncc(F)cc23)nc(C2CC2)c1F [Compound 1]
- EC50 ([1]; 120 h, MDCK cells, influenza virus A/Weiss/43 (H1N1), 5 days, CCK8 cell viability): 0.013 nM
- effect in the experiment of inhibiting influenza virus replication at a cell level ([1]; result in words): positive effect
- Rate of Weight Loss (Day 9) ([2]; Day 9): 4.8%
- Survival Rate (%) ([2]; observed to Day 14): 100%

Compound: O=C(O)[C@H]1C2CCC(CC2)[C@@H]1Nc1nc(-c2n[nH]c3ncc(F)cc23)nc(C2CC2)c1F [crystal form G]
- Appearance [3, 4]: Off-white solid
- Appearance [3, 5]: Off-white solid
- Total Impurities (%) [3, 5]: 0.35%
- Appearance ([3]; Day 0 (initial)): Off-white solid
- Total Impurities (%) ([3]; Day 0 (initial)): 0.35%
- Appearance [3, 6]: Off-white solid
- Appearance [3, 7]: Off-white solid
- Total Impurities (%) [3, 7]: 0.33%
- Appearance [3, 8]: Off-white solid
- Appearance [3, 9]: Off-white solid
- Total Impurities (%) [3, 9]: 0.42%
- Appearance [3, 10]: Off-white solid
- Appearance [3, 11]: Yellowish solid
- Total Impurities (%) [3, 11]: 0.54%
- change of crystal form (XRPD detection) [3]: does not change
- XPRD [3, 5]: Crystal form G
- XPRD ([3]; Day 0 (initial)): Crystal form G
- XPRD [3, 7]: Crystal form G
- XPRD [3, 9]: Crystal form G
- XPRD [3, 11]: Crystal form G
- change in total impurity content ([3]; high humidity and accelerated experiments): almost no change
- change in total impurity content ([3]; high temperature): relatively small change

Compound: O=C(O)[C@H]1C2CCC(CC2)[C@@H]1Nc1nc(-c2n[nH]c3ncc(F)cc23)nc(C2CC2)c1F (single isomer, unassigned) [crystal form A]
- Appearance [3, 4]: Off-white solid
- Appearance [3, 12]: Off-white solid
- Content (%) [3, 12]: 98.36%
- Total Impurities (%) [3, 12]: 1.64%
- Appearance ([3]; Day 0 (initial)): Off-white solid
- Content (%) ([3]; Day 0 (initial)): 98.51%
- Total Impurities (%) ([3]; Day 0 (initial)): 1.49%
- Appearance [3, 6]: Off-white solid
- Appearance [3, 13]: Off-white solid
- Content (%) [3, 13]: 98.25%
- Total Impurities (%) [3, 13]: 1.75%
- Appearance [3, 8]: Off-white solid
- Appearance [3, 14]: Off-white solid
- Content (%) [3, 14]: 98.25%
- Total Impurities (%) [3, 14]: 1.75%
- Appearance [3, 10]: Off-white solid
- Appearance [3, 15]: Off-white solid
- Content (%) [3, 15]: 96.89%
- Total Impurities (%) [3, 15]: 3.11%
- change of crystal form (XRPD detection) [3]: does not change
- XPRD [3, 12]: Crystal form A
- XPRD ([3]; Day 0 (initial)): Crystal form A
- XPRD [3, 13]: Crystal form A
- XPRD [3, 14]: Crystal form A
- XPRD [3, 15]: Crystal form A
- change in total impurity content [3, 16]: relatively small change

Compound: O=C(O)[C@H]1C2CCC(CC2)[C@@H]1Nc1nc(-c2n[nH]c3ncc(F)cc23)nc(C2CC2)c1F [crystal form H]
- Appearance [3, 4]: Off-white solid
- Appearance [3, 5]: Off-white solid
- Total Impurities (%) [3, 5]: 2.0%
- Appearance ([3]; Day 0 (initial)): Off-white solid
- Total Impurities (%) ([3]; Day 0 (initial)): 1.8%
- Appearance [3, 6]: Off-white solid
- Appearance [3, 7]: Off-white solid
- Total Impurities (%) [3, 7]: 1.9%
- Appearance [3, 8]: Off-white solid
- Appearance [3, 9]: Off-white solid
- Total Impurities (%) [3, 9]: 2.0%
- Appearance [3, 10]: Off-white solid
- Appearance [3, 11]: Yellowish solid
- Total Impurities (%) [3, 11]: 1.9%
- change of crystal form (XRPD detection) [3]: does not change
- XPRD [3, 5]: Crystal form H
- XPRD ([3]; Day 0 (initial)): Crystal form H
- XPRD [3, 7]: Crystal form H
- XPRD [3, 9]: Crystal form H
- XPRD [3, 11]: Crystal form H
- change in total impurity content [3, 17]: almost no change

Compound: O=C(O)[C@H]1C2CCC(CC2)[C@@H]1Nc1nc(-c2n[nH]c3ncc(F)cc23)nc(C2CC2)c1F (single isomer, unassigned) [crystal form B]
- Appearance ([3]; Day 0 (initial)): Off-white
- Content (%) ([3]; Day 0 (initial)): 98.89%
- Total Impurities (%) ([3]; Day 0 (initial)): 1.11%
- Appearance [3, 6]: Off-white
- Content (%) [3, 6]: 98.92%
- Total Impurities (%) [3, 6]: 1.08%
- Appearance [3, 13]: Off-white
- Content (%) [3, 13]: 98.90%
- Total Impurities (%) [3, 13]: 1.10%
- Appearance [3, 8]: Off-white
- Content (%) [3, 8]: 98.91%
- Total Impurities (%) [3, 8]: 1.09%
- Appearance [3, 14]: Off-white
- Content (%) [3, 14]: 98.89%
- Total Impurities (%) [3, 14]: 1.11%
- Appearance [3, 10]: Off-white
- Appearance [3, 15]: Off-white
- Content (%) [3, 15]: 98.03%
- Total Impurities (%) [3, 15]: 1.97%
- change in total impurity ([3]; accelerated experiments): relatively small change
- change of crystal form (XRPD detection) [3]: does not change
- XPRD ([3]; Day 0 (initial)): Crystal form B
- XPRD [3, 13]: Crystal form B
- XPRD [3, 14]: Crystal form B
- XPRD [3, 15]: Crystal form B
- change in total impurity content ([3]; high temperature, high humidity): almost no change

Compound: O=C(O)[C@H]1C2CCC(CC2)[C@@H]1Nc1nc(-c2n[nH]c3ncc(F)cc23)nc(C2CC2)c1F [crystal form D]
- Appearance [3, 4]: Off-white solid
- Appearance [3, 18]: Off-white solid
- Total Impurities (%) [3, 18]: 3.5%
- Appearance ([3]; Day 0 (initial)): Off-white solid
- Total Impurities (%) ([3]; Day 0 (initial)): 3.3%
- Appearance [3, 6]: Off-white solid
- Appearance [3, 19]: Off-white solid
- Total Impurities (%) [3, 19]: 3.4%
- Appearance [3, 8]: Off-white solid
- Appearance [3, 20]: Off-white solid
- Total Impurities (%) [3, 20]: 3.3%
- Appearance [3, 10]: Off-white solid
- Appearance [3, 11]: Off-white solid
- Total Impurities (%) [3, 11]: 3.4%
- change of crystal form (XRPD detection) [3]: does not change
- XPRD [3, 18]: Crystal form D
- XPRD ([3]; Day 0 (initial)): Crystal form D
- XPRD [3, 19]: Crystal form D
- XPRD [3, 20]: Crystal form D
- XPRD [3, 11]: Crystal form D
- change in total impurity content [3, 17]: almost no change

Compound: O=C(O)[C@H]1C2CCC(CC2)[C@@H]1Nc1nc(-c2n[nH]c3ncc(F)cc23)nc(C2CC2)c1F [crystal form F]
- Appearance [3, 4]: Off-white solid
- Appearance [3, 18]: Off-white solid
- Total Impurities (%) [3, 18]: 1.9%
- Appearance ([3]; Day 0 (initial)): Off-white solid
- Total Impurities (%) ([3]; Day 0 (initial)): 1.7%
- Appearance [3, 6]: Off-white solid
- Appearance [3, 19]: Off-white solid
- Total Impurities (%) [3, 19]: 1.9%
- Appearance [3, 8]: Off-white solid
- Appearance [3, 20]: Off-white solid
- Total Impurities (%) [3, 20]: 1.9%
- Appearance [3, 10]: Off-white solid
- Appearance [3, 11]: Off-white solid
- Total Impurities (%) [3, 11]: 1.8%
- change of crystal form (XRPD detection) [3]: does not change
- XPRD [3, 18]: Crystal form F
- XPRD ([3]; Day 0 (initial)): Crystal form F
- XPRD [3, 19]: Crystal form F
- XPRD [3, 20]: Crystal form F
- XPRD [3, 11]: Crystal form F
- change in total impurity content [3, 16]: almost no change
